# Experimental data reported in US9365502B2, “Neuroactive substituted cyclopenta[b]phenanthrenes as modulators for GABA type-A receptors” (priority 2013, dated 2016).
# Read-outs that look alike come from different tables or passages of the source.
# Columns and labels:
# [1] = biological target: picrotoxin binding site on GABAA receptors; assay: [35S]-TBPS displacement (inhibition of [35S]-TBPS binding); conditions: mean ± SEM, duplicate experiments performed in triplicate
# Experimental: The IC50 values for non-competitive displacers of [^35S]-TBPS from the picrotoxin binding site on GABAA receptors are reported in Table 1.
# Results presented are from duplicate experiments performed in triplicate. Error limits are calculated as standard error of the mean. Methods used are known in the art (see Jiang, X., et al., Neurosteroid analogues. 9. Conformationally constrained pregnanes: structure-activity studies of 13,24-cyclo-18,21-dinorcholane analogues of the GABA modulatory and anesthetic steroids (3α,5α)- and […]. J. Med. Chem., 46: 5334-48 (2003)—the contents of which are hereby incorporated by reference in their entirety).
# [2] = biological target: rat α1β2γ2L type GABAA receptors expressed in Xenopus laevis oocytes (Rattus norvegicus (Rat), UniProt P62813+P63138, INS375LLRMFSFK); assay: Potentiation of GABA-mediated chloride currents, oocyte electrophysiology; format: cell-based; conditions: ± SEM; for Oocyte electrophysiology 0.1 μM (ratio of currents in presence/absence of compound): 0.1 μM compound; for Oocyte electrophysiology 0.1 μM (ratio of currents in presence/absence of compound) / Oocyte electrophysiology 1.0 μM (ratio of currents in presence/absence of compound) / Oocyte electrophysiology 10 μM (ratio of currents in presence/absence of compound): 2 μM GABA, N>=4; for Oocyte electrophysiology 1.0 μM (ratio of currents in presence/absence of compound): 1.0 μM compound; for Oocyte electrophysiology (gating) 10 μM (ratio of compound only current/2 μM GABA current): 10 μM compound in the absence of GABA; for Oocyte electrophysiology 10 μM (ratio of currents in presence/absence of compound): 10 μM compound
# Experimental: The compounds of the present disclosure were evaluated for the ability to potentiate chloride currents mediated by 2 μM GABA at rat α1β2γ2L type GABAA receptors expressed in Xenopus laevis oocytes and the results are shown in Table 2.
# The GABA concentration used for the control response was 2 μM. Each compound was evaluated on at least four different oocytes at the concentrations indicated, and the results reported are the ratio of currents measured in the presence/absence of added compound. Gating represents direct current gated by 10 μM compound in the absence of GABA, and this current is reported as the ratio of compound only current/2 μM GABA current. Error limits are calculated as standard error of the mean (N≧4). Methods used are known in the art (see Jiang, X., et al.).
# [3] = test system: Tadpole; assay: Tadpole loss of righting (LRR) and loss of swimming (LSR) reflexes; format: in vivo; conditions: ± SEM
# Experimental: Table 3 discloses the anesthetic effects of the compounds of the present disclosure. In particular, the anesthetic effect of the compounds of the present disclosure on Loss of Righting Reflex (LRR) and Loss of Swimming Reflex (LSR).
# Methods used are known in the art (see Jiang, X., et al.). Error limits are calculated as standard error of the mean (N=10 or more animals at each of five or more different concentrations).
# [4] = loss of righting reflex, read-out: Tadpole LRR EC50
# [5] = loss of swimming reflex, read-out: Tadpole LSR EC50
Structure (SMILES),IC50 [1] [nM],Oocyte electrophysiology 0.1 μM (ratio of currents in presence/absence of compound) [2],Oocyte electrophysiology 1.0 μM (ratio of currents in presence/absence of compound) [2],Oocyte electrophysiology (gating) 10 μM (ratio of compound only current/2 μM GABA current) [2],Oocyte electrophysiology 10 μM (ratio of currents in presence/absence of compound) [2],"EC50 [3, 4] [nM]","EC50 [3, 5] [nM]"
C[C@]12C[C@H]3CC[C@@H]4C[C@@H](O)CC[C@H]4[C@@H]3C[C@@H]1CC/C2=C/C#N [MQ-31],61 ± 4,1.49 ± 0.09,3.93 ± 0.20,0.02 ± 0.02,8.25 ± 0.71,430 ± 80,1040
C[C@]12C[C@H]3CC[C@@H]4C[C@@H](O)CC[C@H]4[C@@H]3C[C@@H]1CC/C2=C\C#N [MQ-32],147 ± 9,1.64 ± 0.02,3.21 ± 0.13,0.12 ± 0.01,8.77 ± 1.65,360 ± 130,1070
C[C@]12C[C@H]3CC[C@@H]4C[C@@H](O)CC[C@H]4[C@@H]3C[C@@H]1CC[C@@H]2[N+](=O)[O-] [MQ-33],62 ± 6,1.68 ± 0.10,5.30 ± 0.75,0.02 ± 0.01,9.08 ± 1.83,240 ± 10,550 ± 10
C[C@]12C[C@H]3CCC4C[C@@H](O)CC[C@H]4[C@@H]3C[C@@H]1CCC2=O (stereo partly drawn) [MQ-36],1730,1.11 ± 0.09,1.22 ± 0.05,−0.06 ± 0.06,3.81 ± 0.45,7900 ± 4450,> 30000
C[C@]12C[C@H]3CC[C@@H]4C[C@@H](O)CCC4C3CC1CC[C@@]21CO1 (stereo partly drawn) [MQ-37],46 ± 4,1.91 ± 0.17,16.12 ± 2.24,0.54 ± 0.44,27.57 ± 5.45,160,540 ± 10
C[C@]12C[C@H]3CC[C@@H]4C[C@@H](O)CC[C@H]4[C@@H]3C[C@@H]1CC[C@@H]2C#N [MQ-38],52 ± 7,1.51 ± 0.19,6.92 ± 1.29,0.51 ± 0.48,12.50 ± 1.98,380 ± 60,870
CC(=O)[C@H]1CCC2CC3C(CCC4C[C@H](O)CCC43)C[C@@]21C (stereo partly drawn) [MQ-39],65 ± 7,1.32 ± 0.03,3.82 ± 0.36,0.03 ± 0.0,7.91 ± 0.64,340,1070
C[C@@]12CC3CC[C@H]4C[C@H](O)CCC4C3CC1CCC2=O (stereo partly drawn) [MQ-47],1330,1.10 ± 0.20,1.50 ± 0.28,−0.01 ± 0.03,6.42 ± 1.11,3760 ± 5220,> 10000
C[C@]12CC(=O)CC1CC1C(CCC3C[C@H](O)CCC31)C2 (stereo partly drawn) [MQ-48],282 ± 197,1.03 ± 0.01,1.64 ± 0.06,0.01 ± 0.0,7.10 ± 1.51,2390 ± 280,7490
